This passage reports IC50 results from US20060252807A1, “Novel ortho-terphenyl inhibitors of p38 kinase and methods of treating inflammatory disorders” (Kalypsys, Inc., priority 2005, published 2006).

The target in this test is T1, active p38 alpha enzyme (Upstate Biotechnology) (Homo sapiens, UniProt Q16539).
T1 construct: purchased Upstate Biotechnology
The test is described as follows: p38α biochemical assay (ATP turnover, luminescent detection, Cambrex PKlight). The following applies: p38α kinase; Table 1 Biological Activity. Put shortly:
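Luminescent PKlight readout of total ATP consumption follows a 2 h, 30C kinase reaction. Enzyme and MapkapK2 substrate run with 1.4 uM ATP (final) in buffer containing Mg2+, Ca2+, chelators, glycerol, reducing agent and BSA; test compounds added by pintool from DMSO.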

T1 sequence (Q16539 whole entry): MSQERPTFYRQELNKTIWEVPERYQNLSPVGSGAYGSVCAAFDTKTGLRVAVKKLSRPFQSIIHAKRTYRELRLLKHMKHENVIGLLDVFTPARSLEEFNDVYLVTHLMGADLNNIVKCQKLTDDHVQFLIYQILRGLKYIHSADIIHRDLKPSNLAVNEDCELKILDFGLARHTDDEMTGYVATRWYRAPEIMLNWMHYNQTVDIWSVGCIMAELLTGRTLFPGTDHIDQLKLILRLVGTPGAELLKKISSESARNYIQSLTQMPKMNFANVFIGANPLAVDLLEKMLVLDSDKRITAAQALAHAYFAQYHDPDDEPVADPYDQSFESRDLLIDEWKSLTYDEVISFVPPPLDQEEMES

The IC50 is the concentration that inhibits the measured activity by half. Lower therefore signals greater potency. Compound `Cc1nc(-c2ccc(F)cc2)c(-c2nc(C(=O)N3CCN(Cc4ccccc4)CC3)cs2)s1` [Example 1900] came in with an IC50 above 1000 nM.
For `Cc1nc(-c2ccc(F)cc2)c(-c2nc(C(=O)N3CCCN(Cc4ccccc4)CC3)cs2)s1` [Example 1901] the value was above 1000 nM.
The value for `Cc1nc(-c2ccc(F)cc2)c(-c2nc(C(=O)N3CCN(c4ccc(O)cc4)CC3)cs2)s1` [Example 1902] was above 1000 nM; that for `Cc1nc(-c2ccc(F)cc2)c(-c2nc(C(=O)N(CCN(C)C)Cc3ccccc3)cs2)s1` [Example 1903] was above 1000 nM; that for `Cc1nc(-c2ccc(F)cc2)c(-c2nc(C(=O)N3CCN(c4ccccc4F)CC3)cs2)s1` [Example 1904] was above 1000 nM.
For `Cc1nc(-c2ccc(F)cc2)c(-c2nc(C(=O)N3CCN(c4ccc(F)cc4)CC3)cs2)s1` [Example 1905] the value was above 1000 nM; for `Cc1nc(-c2ccc(F)cc2)c(-c2nc(C(=O)N3CCN(CC4CCCCC4)CC3)cs2)s1` [Example 1906], above 1000 nM; for `Cc1nc(-c2ccc(F)cc2)c(-c2nc(C(=O)N(C)C[C@H](O)c3ccc(O)c(O)c3)cs2)s1` [Example 1907], above 1000 nM.
`CCOC(=O)CC1C(=O)NCCN1C(=O)c1csc(-c2sc(C)nc2-c2ccc(F)cc2)n1` (stereo not drawn) [Example 1908] displayed an IC50 of at most 1000 nM.
For `Cc1nc(-c2ccc(F)cc2)c(-c2nc(C(=O)N3CCN(C(=O)OC(C)(C)C)CC3)cs2)s1` [Example 1909], the IC50 was above 1000 nM.
The value for `Cc1nc(-c2ccc(F)cc2)c(-c2nc(C(=O)N3CCC(NC(=O)OC(C)(C)C)C3)cs2)s1` (stereo not drawn) [Example 1910] was above 1000 nM; that for `Cc1nc(-c2ccc(F)cc2)c(-c2nc(C(=O)N3CCN(c4ccccc4C#N)CC3)cs2)s1` [Example 1911] was at most 1000 nM; that for `Cc1nc(-c2ccc(F)cc2)c(-c2nc(C(=O)N3CCN(c4ccc(C#N)cn4)CC3)cs2)s1` [Example 1912] was above 1000 nM.
The value for `Cc1nc(-c2ccc(F)cc2)c(-c2nc(C(=O)N3CCN(c4cccc(C)c4C)CC3)cs2)s1` [Example 1913] was above 1000 nM.
The value for `Cc1cccc(N2CCN(C(=O)c3csc(-c4sc(C)nc4-c4ccc(F)cc4)n3)CC2C)c1` (stereo not drawn) [Example 1915] was at most 1000 nM; that for `Cc1nc(-c2ccc(F)cc2)c(-c2nc(C(=O)N3CCN(CCc4ccccc4)CC3)cs2)s1` [Example 1916] was above 1000 nM.
For `Cc1nc(-c2ccc(F)cc2)c(-c2nc(C(=O)N3CCN(c4ccc(C)c(C)c4)CC3)cs2)s1` [Example 1917], the IC50 was above 1000 nM.
For `Cc1ccc(N2CCN(C(=O)c3csc(-c4sc(C)nc4-c4ccc(F)cc4)n3)CC2)c(C)c1` [Example 1918] the value was above 1000 nM; for `Cc1ccc(C)c(N2CCN(C(=O)c3csc(-c4sc(C)nc4-c4ccc(F)cc4)n3)CC2)c1` [Example 1919], above 1000 nM.
For `COc1ccc(N2CCN(C(=O)c3csc(-c4sc(C)nc4-c4ccc(F)cc4)n3)CC2)cc1` [Example 1920] the value was above 1000 nM; for `COc1ccccc1N1CCN(C(=O)c2csc(-c3sc(C)nc3-c3ccc(F)cc3)n2)CC1` [Example 1921], above 1000 nM.
For `COc1cccc(N2CCN(C(=O)c3csc(-c4sc(C)nc4-c4ccc(F)cc4)n3)CC2)c1` [Example 1922] the value was above 1000 nM; for `COc1ccc(CCN(C)C(=O)c2csc(-c3sc(C)nc3-c3ccc(F)cc3)n2)cc1OC` [Example 1923], above 1000 nM; for `Cc1nc(-c2ccc(F)cc2)c(-c2nc(C(=O)N3CCN(c4cccc(Cl)c4)CC3)cs2)s1` [Example 1924], above 1000 nM.
`Cc1nc(-c2ccc(F)cc2)c(-c2nc(C(=O)N3CCN(c4ccc(Cl)cc4)CC3)cs2)s1` [Example 1925]: the IC50 was above 1000 nM.
The value for `Cc1nc(-c2ccc(F)cc2)c(-c2nc(C(=O)N3CCN(c4ccc(F)cc4F)CC3)cs2)s1` [Example 1927] was above 1000 nM; that for `Cc1nc(-c2ccc(F)cc2)c(-c2nc(C(=O)N(Cc3cccnc3)Cc3cccnc3)cs2)s1` [Example 1928] was above 1000 nM.
